Structures are written as SMILES. Some results are limits rather than exact numbers.

The target of assay [1] is ALK tyrosine kinase receptor (Homo sapiens, UniProt Q9UM73). Nature of the assay: Inhibition of 6xHis-tagged human NPM-ALK expressed in insect cells.
The target of assay [2] is Insulin receptor (Homo sapiens, UniProt P06213). Nature of the assay: Inhibition of human recombinant IRK.
The target of assay [3] is Hepatocyte growth factor receptor (Homo sapiens, UniProt P08581). Put plainly: Inhibition of recombinant MET.
For assay [4], the target named is Insulin-like growth factor 1 receptor (Homo sapiens, UniProt P08069). Nature of the assay: Inhibition of recombinant IGFR1.
Assay [5] concerns the target Tyrosine-protein kinase JAK2 (Homo sapiens, UniProt O60674). Nature of the assay: Inhibition of recombinant JAK2.

Insulin receptor, sequence (P06213 28-758 limits assumed): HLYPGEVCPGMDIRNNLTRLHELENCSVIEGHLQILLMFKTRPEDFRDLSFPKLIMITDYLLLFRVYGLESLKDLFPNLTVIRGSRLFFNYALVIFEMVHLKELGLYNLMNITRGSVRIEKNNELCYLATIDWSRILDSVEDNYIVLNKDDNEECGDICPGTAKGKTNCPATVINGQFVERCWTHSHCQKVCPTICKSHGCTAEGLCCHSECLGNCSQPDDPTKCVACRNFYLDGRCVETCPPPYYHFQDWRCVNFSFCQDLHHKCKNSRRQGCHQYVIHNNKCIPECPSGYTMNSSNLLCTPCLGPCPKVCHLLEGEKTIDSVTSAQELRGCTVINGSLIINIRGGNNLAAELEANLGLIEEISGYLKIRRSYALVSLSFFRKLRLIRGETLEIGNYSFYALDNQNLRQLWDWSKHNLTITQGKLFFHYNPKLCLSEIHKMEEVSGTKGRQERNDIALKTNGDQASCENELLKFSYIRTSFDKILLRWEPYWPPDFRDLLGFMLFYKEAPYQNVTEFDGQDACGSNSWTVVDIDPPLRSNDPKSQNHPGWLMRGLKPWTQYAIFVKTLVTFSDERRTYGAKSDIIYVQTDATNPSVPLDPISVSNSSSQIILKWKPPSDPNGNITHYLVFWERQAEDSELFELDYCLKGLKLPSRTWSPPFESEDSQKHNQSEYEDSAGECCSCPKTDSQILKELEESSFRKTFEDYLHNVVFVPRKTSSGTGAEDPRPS
Insulin receptor, sequence (P06213 763-1382 limits assumed): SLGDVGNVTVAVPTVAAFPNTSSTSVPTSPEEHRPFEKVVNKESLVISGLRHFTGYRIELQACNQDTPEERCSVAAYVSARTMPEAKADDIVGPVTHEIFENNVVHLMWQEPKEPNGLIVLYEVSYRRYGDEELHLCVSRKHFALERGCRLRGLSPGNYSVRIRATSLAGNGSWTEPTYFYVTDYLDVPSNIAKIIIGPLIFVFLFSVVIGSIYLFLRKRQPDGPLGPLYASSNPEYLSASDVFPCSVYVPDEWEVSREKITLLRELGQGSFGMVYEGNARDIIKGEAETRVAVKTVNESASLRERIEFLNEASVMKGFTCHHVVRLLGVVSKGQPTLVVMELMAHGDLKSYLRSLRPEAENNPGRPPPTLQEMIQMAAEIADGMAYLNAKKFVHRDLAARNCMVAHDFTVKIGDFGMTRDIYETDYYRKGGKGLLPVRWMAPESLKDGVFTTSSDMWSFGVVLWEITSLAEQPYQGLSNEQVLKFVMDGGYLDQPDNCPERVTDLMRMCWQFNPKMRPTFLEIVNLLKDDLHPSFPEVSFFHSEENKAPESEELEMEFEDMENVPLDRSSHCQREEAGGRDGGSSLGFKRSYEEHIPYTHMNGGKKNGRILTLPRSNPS
ALK tyrosine kinase receptor, sequence (Q9UM73 19-1620 limits assumed): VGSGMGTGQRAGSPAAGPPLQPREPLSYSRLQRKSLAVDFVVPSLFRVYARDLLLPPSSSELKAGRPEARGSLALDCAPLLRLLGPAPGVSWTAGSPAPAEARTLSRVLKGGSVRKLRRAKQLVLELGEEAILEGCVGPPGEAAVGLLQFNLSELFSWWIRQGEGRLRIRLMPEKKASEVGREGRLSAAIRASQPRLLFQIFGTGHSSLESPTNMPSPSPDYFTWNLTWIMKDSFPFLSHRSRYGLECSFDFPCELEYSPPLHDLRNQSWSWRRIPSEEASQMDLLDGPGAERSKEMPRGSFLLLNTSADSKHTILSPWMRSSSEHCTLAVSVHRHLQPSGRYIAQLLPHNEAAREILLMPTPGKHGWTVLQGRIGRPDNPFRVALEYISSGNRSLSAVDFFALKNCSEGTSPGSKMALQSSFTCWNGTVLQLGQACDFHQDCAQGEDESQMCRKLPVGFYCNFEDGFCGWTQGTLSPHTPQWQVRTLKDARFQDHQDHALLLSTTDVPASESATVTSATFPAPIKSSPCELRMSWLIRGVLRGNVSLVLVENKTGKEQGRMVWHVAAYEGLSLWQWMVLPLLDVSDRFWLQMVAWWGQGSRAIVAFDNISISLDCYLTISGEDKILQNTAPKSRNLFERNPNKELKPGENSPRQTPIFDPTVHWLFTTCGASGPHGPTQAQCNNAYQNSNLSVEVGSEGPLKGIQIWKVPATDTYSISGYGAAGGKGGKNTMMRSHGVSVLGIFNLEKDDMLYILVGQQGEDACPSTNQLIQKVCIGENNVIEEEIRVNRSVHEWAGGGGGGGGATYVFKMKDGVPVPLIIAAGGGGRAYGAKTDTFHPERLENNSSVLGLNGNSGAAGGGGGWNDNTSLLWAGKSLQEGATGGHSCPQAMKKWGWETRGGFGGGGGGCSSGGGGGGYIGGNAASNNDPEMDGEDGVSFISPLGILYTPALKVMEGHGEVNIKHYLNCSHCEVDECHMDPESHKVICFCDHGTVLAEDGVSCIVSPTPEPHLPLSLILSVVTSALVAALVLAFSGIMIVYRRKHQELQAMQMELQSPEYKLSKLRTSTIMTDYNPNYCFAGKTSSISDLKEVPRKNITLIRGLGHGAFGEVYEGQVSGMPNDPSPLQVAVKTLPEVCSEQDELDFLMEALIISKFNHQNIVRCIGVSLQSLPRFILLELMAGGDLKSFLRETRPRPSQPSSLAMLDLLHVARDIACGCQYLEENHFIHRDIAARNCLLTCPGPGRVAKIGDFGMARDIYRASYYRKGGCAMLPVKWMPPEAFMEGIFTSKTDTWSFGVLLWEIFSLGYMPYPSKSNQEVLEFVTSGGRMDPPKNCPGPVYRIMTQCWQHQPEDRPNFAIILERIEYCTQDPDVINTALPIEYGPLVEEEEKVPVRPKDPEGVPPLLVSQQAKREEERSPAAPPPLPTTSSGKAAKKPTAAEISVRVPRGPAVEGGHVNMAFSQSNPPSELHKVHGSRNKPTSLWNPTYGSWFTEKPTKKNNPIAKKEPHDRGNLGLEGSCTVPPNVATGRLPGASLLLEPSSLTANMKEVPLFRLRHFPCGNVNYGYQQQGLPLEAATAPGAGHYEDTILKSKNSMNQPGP
Tyrosine-protein kinase JAK2, sequence (O60674 whole entry): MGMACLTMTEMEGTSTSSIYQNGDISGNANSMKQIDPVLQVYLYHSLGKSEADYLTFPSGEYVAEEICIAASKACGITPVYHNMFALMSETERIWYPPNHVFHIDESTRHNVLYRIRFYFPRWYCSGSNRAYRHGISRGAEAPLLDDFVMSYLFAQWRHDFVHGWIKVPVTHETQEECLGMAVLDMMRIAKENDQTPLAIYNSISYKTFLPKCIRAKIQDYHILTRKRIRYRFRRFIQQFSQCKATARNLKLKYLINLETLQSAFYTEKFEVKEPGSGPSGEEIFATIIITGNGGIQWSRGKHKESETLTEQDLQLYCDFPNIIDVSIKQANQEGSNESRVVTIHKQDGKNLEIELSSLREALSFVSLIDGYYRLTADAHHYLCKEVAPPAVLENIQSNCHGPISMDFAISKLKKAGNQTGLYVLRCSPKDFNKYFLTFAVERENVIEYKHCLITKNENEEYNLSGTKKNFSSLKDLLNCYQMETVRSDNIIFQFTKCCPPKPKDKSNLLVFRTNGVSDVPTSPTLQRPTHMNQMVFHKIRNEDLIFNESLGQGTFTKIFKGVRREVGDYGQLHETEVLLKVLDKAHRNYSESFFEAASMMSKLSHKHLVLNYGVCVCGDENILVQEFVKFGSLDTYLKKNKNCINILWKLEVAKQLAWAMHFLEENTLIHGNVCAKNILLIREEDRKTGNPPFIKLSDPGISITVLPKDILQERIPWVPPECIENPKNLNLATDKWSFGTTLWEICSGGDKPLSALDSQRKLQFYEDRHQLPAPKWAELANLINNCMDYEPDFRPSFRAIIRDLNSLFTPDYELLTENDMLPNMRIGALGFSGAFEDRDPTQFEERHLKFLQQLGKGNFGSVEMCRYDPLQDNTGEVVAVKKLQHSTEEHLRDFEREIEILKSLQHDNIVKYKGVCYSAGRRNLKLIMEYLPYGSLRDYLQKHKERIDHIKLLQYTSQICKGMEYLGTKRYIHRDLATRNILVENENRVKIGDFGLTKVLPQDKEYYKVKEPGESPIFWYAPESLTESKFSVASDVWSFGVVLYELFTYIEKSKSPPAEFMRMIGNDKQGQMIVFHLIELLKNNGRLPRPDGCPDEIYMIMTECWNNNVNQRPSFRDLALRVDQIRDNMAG

The term IC50 denotes the concentration needed to halve the response being measured. As for `Brc1ccc2[nH]c3c(c2c1)CCN(CC(c1ccccc1)c1ccccc1)c1nccc(I)c1-3`, the figures for the 50% inhibitory concentration (IC50) in assay [1], in assay [2] and in assay [3] were 5 µM, more than 40 µM and 8.6 µM, respectively.
Regarding `COc1nc(C)cc2c1-c1[nH]c3cc(N4CCN(C)CC4)ccc3c1CCN2CCc1ccccc1`, the IC50 in assay [1] came to 5.1 µM; in assay [2], 3.5 µM; in assay [4], 4.5 µM; in assay [5], 5.1 µM; in assay [3], 5.5 µM.
As for `Clc1nccc2c1-c1[nH]c3ccc(Br)cc3c1CCN2CC(c1ccccc1)c1ccccc1`, the IC50 in assay [1], in assay [2] and in assay [3] was more than 40 µM each time.
As for `C[C@@H](c1ccccc1)N1CCc2c([nH]c3ccc(Br)cc23)-c2c1ccnc2Cl`, the figures for the IC50 in assay [1], in assay [2] and in assay [3] were 5.8 µM, 11.9 µM and 12.9 µM, respectively.
`Oc1ccc(CCN2CCc3c([nH]c4ccc(Br)cc34)-c3c(I)ccnc32)cc1`: the IC50 in assay [1] is 6.2 µM; in assay [2], 11.1 µM; in assay [3], 9.7 µM.
Turning to `Cc1cc2c(c(Cl)n1)-c1[nH]c3ccccc3c1CCN2CCc1ccccc1`, the IC50 in assay [1] was 21.3 µM; in assay [2], 30.5 µM; in assay [4], 24.7 µM; in assay [5], 33.5 µM; in assay [3], 26.1 µM.
`C[C@@H](c1ccccc1)N1CCc2c([nH]c3ccc(Br)cc23)-c2c(I)ccnc21`: the IC50 was 8.3 µM in assay [1], more than 40 µM in assay [2] and more than 40 µM in assay [3].
On to `Clc1nccc2c1-c1[nH]c3ccc(Br)cc3c1CCN2CCc1c[nH]c2ccccc12`, for which the IC50 in assay [1] is 9.3 µM; in assay [2] it was more than 40 µM; in assay [3], more than 40 µM.
`Cc1cc(Cl)c2c(n1)N(CCc1ccccc1)CCc1c-2[nH]c2ccccc12`: the IC50 was 11.8 µM in assay [1]; 19.8 µM in assay [2]; 12.6 µM in assay [4]; more than 40 µM in assay [5]; 12.4 µM in assay [3].
Consider `COc1cc(C)nc2c1-c1[nH]c3ccccc3c1CCN2CCc1ccccc1`, for which the 50% inhibitory concentration (IC50) in assay [1], in assay [2], in assay [4], in assay [5] and in assay [3] was more than 40 µM throughout.
`COc1nc(C)cc2c1-c1[nH]c3ccccc3c1CCN2CCc1ccccc1`: the IC50 in assay [1], in assay [2], in assay [4], in assay [5] and in assay [3] was more than 40 µM each time.
For `Cc1cc2c(c(=O)[nH]1)-c1[nH]c3ccccc3c1CCN2CCc1ccccc1`, the 50% inhibitory concentration (IC50) in assay [1] is 18 µM; in assay [2] it was 15.6 µM; in assay [4] it was 11.8 µM; in assay [5] it was 16.9 µM; in assay [3], 19.7 µM.
Turning to `Oc1ccc(CCN2CCc3c([nH]c4ccc(Br)cc34)-c3c2ccnc3Cl)cc1`, the IC50 in assay [1] is 7.1 µM; in assay [2] it was more than 40 µM; in assay [3], 12.5 µM.
